Measurements from patent US20100158863A1, “TRIAZOLOANILINOPYRIMIDINE DERIVATIVES FOR USE AS ANTIVIRAL AGENTS” (ARROW THERAPEUTICS LIMITED, priority 2006, published 2010).

Experiments:
HCV replicon 1b (Huh-9B) = test: HCV replicon activity, luciferase detection on the replicon plate; format: cell-based, HCV genotype 1b; conditions: Huh-9B replicon cells, luciferase signal
Source text: 1b replicon (Huh.7) described in Science 285, 110-113. • Huh-9B: liver cell line with persistent bicistronic HCV genotype 1b coding sequence: [I3891ucubineo—3-3′_ET] includes firefly luciferase-ubiquitin-neomycin phosphotransferase fusion protein and EMCV-IRES driven non-structural HCV (NS3 to NS5B) coding sequence including cell culture adaptive mutations E1202G, […] and K1846T (Lohmann et al, 2001).
This assay is set up using all 96 wells of flat-bottomed 96-well plates. Plates are set up one day before addition of compounds. The assay then runs for 4 days with ELISA development taking place on the 5th day.
Exponentially growing Huh-9B monolayers are washed with sterile PBS to remove serum and treated with trypsin to detach cells from the flask.
(§1) Cells are suspended in growth media and counted using a haemocytometer. Duplicate 96 well plates are seeded with Huh-9B at a density of 10^4 cells/well in a total volume of 100 μl/well of growth medium without antibiotics as depicted below.
(§2) One of the plates is an opaque white 96-well plate used for IC50 determination based on the luciferase signal (referred as replicon plate), the other one is a clear 96-well plate used for a parallel determination of drug toxicity by methylene blue staining (referred as tox plate). Wells G12 and H12 of the tox plate are left without cells to use as buffer alone background reading.
Plates are then incubated at 37° C. in a 5% CO2 environment for 24 h to obtain a 90% confluent cell monolayer.
(§3) Doubling dilutions of each compound are generated in a separate 96 high volume capacity round bottom plate to twice their initial concentration in the assay using growth medium without antibiotics.
Five compounds (C1 to C5) are tested on each assay plate as illustrated below plus a control compound that is also included in each plate.
(§4) Compounds are tested across an 8 point doubling dilution series. The initial dilution of each compound to be tested is 25 μM and 12.5 μM for the control compound.
DMSO only wells (A1 and A2) at 1% provide the signal corresponding to maximal (100%) luciferase detection. […] The signal from the DMSO wells at 1% (maximal signal) constitutes the assay window.
(§5) For each compound dilution on the 2×96-well dilution plate 100 μl are transferred using a multichannel pipette onto the replicon and tox plates mirror wells which contain […] of medium to obtain the desired final concentration.
Media is tapped out from wells into Virkon and plates are washed once in warm PBS and tapped dry gently.
For each well 20 μl of lysis buffer is added by multichannel pipette. Lysates are stable at this point for several hours.
Luciferase assay buffer is placed it in the luminometer (Lmax, Molecular Devices).
The M injector is primed with 4×300 μl of luciferase assay buffer. The plate to be analyzed is placed in the luminometer and […] of luciferase assay buffer injected automatically into one well followed by 4 seconds integration read out.
After one second delay a second well is injected with 100 μl of luciferase assay buffer followed by 4 seconds integration read out and so forth until all 96 wells are analyzed.
Once the reading is finished the luminometer injection system is washed with deionised water.
The data is acquired using the SOFTmax for Lmax Pro software package.
(§6) SOFTmax data files are exported as Excel or text files. A standard four parameters non-linear regression analysis of the data obtained from each compound is then used to calculate the IC50.
(§7) In the above analysis all replicate wells are meaned. The % of control is then calculated for each concentration point as a percentage of the DMSO control wells.

Huh-9B = test: Toxicity determination on the tox plate by methylene blue staining; format: cell-based; conditions: Huh-9B cells, parallel tox plate
Method: as §1, §2, §3, §4, §5
Media is tapped out from wells into Virkon and plates tapped dry gently. To each well 100 μl of 0.5% solution of methylene blue in 50% methanol is added to all wells including blanks (G12 and H12). Plates are left at RT for a minimum of 1 h. Plates are then rinsed gently by immersing in a plastic box with water, tapped dry gently and left open until they are fully dry. Dye is solubilized adding 100 μl of 1% lauroylsarcosine to each well and shaking for 1 h at 37° C. Plates are read on the SpectraMax spectrophotometer at 620 nm wavelength using the SOFTmax Pro software package.
as §6, §7

| Compound | IC50 (HCV replicon 1b (Huh-9B); Hepatitis C virus) [µM] | Replicon TD50 (Huh-9B) | IC50 (HCV replicon 1b (Huh-9B)) [µM] |
| --- | --- | --- | --- |
| Brc1ccc2ncnc(Nc3ccc(-n4cncn4)cc3)c2c1 [Example 21, (6-Bromo-quinazolin-4-yl)-(4-[1,2,4]triazol-1-yl-phenyl)-amine] | < 5 | ** (** >25 μM) |  |
| COCCOc1ccc(-c2ccc3ncnc(Nc4ccc(-n5cncn5)cc4)c3c2)cc1F [Example 9, {6-[3-Fluoro-4-(2-methoxy-ethoxy)-phenyl]-quinazolin-4-yl}-(4-[1,2,4]triazol-1-yl-phenyl)-amine] | < 5 | ** (** >25 μM) |  |
| COc1ccc(-c2ccc3ncnc(Nc4ccc(-n5nc(C(=O)O)nc5C)cc4)c3c2)cc1OC [Example 29, 1-(4-{6-[3,4-Dimethoxy-phenyl]-quinazolin-4-ylamino}-phenyl)-5-methyl-1H-[1,2,4]triazole-3-carboxylic acid] | 5 to 20 | ** (** >25 μM) |  |
| COc1cc2c(Nc3ccc(-n4cncn4)cc3)ncnc2cc1OCCCN1CCOCC1 [Example 4, [6-Methoxy-7-(3-morpholin-4-yl-propoxy)-quinazolin-4-yl]-(4-[1,2,4]triazol-1-yl-phenyl)-amine] | 5 to 20 | ** (** >25 μM) |  |
| CN(C)CCOc1ccc(-c2ccc3ncnc(Nc4ccc(-n5cncn5)cc4)c3c2)cc1F [Example 20, {6-[4-(2-Dimethylamino-ethoxy)-3-fluoro-phenyl]-quinazoline-4-yl}-(4-[1,2,4]triazole-1-yl-phenyl)amine] | < 5 | * (* <25 μM) |  |
| Fc1cc(-c2ccc3ncnc(Nc4ccc(-n5cncn5)cc4)c3c2)ccc1OCCCN1CCCC1 [Example 25, {6-[3 fluoro-4-(3-pyrrolidin-1-yl-propoxy)-phenyl]-quinazoline-4-yl}-(4-[1,2,4]triazole-1-yl-phenyl)amine] | < 5 | * (* <25 μM) |  |
| COCCOc1ccc(-c2ccc3ncnc(Nc4ccc(-n5nc(C(=O)N(C)C)nc5C)cc4)c3c2)cc1F [Example 32, 1-(4-{6-[3-Fluoro-4-(2-methoxy-ethoxy)-phenyl]-quinazolin-4-ylamino}-phenyl)-5-methyl-1H-[1,2,4]triazole-3-carboxylic acid dimethylamide] | < 5 | * (* <25 μM) |  |
| Fc1cc(-c2ccc3ncnc(Nc4ccc(-n5cncn5)cc4)c3c2)ccc1OCCCN1CCOCC1 [Example 26, {6-[3-fluoro-4-(3-morpholin-4-yl-propoxy)-phenyl]-quinazoline-4-yl}-(4-[1,2,4]triazole-1-yl-phenyl)amine] | < 5 | * (* <25 μM) |  |
| CN(C)CCN(C)CCOc1ccc(-c2ccc3ncnc(Nc4ccc(-n5cncn5)cc4)c3c2)cc1F [Example 22, N-(2-{2-Fluoro-4-[4-(4-[1,2,4]triazol-1-yl-phenylamino)-quinazolin-6-yl]-phenoxy}-ethyl)-N,N′,N′-trimethyl-ethane-1,2-diamine] | < 5 | * (* <25 μM) |  |
| COc1ccc(-c2ccc3ncnc(Nc4ccc(-n5cncn5)cc4)c3c2)cc1F [Example 7, [6-(3-Fluoro-4-methoxy-phenyl)-quinazolin-4-yl]-(4-[1,2,4]triazol-1-yl-phenyl)-amine] | < 5 | ** (** >25 μM) |  |
| CC(C)(C)c1ccc2ncnc(Nc3ccc(-n4cncn4)cc3)c2c1 [Example 2, (6-tert-Butyl-quinazolin-4-yl)-(4-[1,2,4]triazol-1-yl-phenyl)-amine] | 5 to 20 | ** (** >25 μM) |  |
| CCOc1ccc(-c2ccc3ncnc(Nc4ccc(-n5cncn5)cc4)c3c2)cc1F [Example 8, [6-(4-Ethoxy-3-fluoro-phenyl)-quinazolin-4-yl]-(4-[1,2,4]triazol-1-yl-phenyl)-amine] | < 5 | ** (** >25 μM) |  |
| Ic1ccc2ncnc(Nc3ccc(-n4cncn4)cc3)c2c1 [Example 1, (6-Iodo-quinazolin-4-yl)-(4-[1,2,4]triazol-1-yl-phenyl)-amine] | < 5 | * (* <25 μM) |  |
| Cc1csc(-c2ccc3ncnc(Nc4ccc(-n5cncn5)cc4)c3c2)c1 [Example 18, [6-(4-Methyl-thiophen-2-yl)-quinazolin-4-yl]-(4-[1,2,4]triazol-1-yl-phenyl)-amine] | < 5 | ** (** >25 μM) |  |
| 1-(4-{6-[3-Fluoro-4-(2-methoxy-ethoxy)-phenyl]-quinazolin-4-ylamino}-phenyl)-5-methyl-1H-[1,2,4]triazole-3-carboxylic acid [Example 28] |  | ** (** >25 μM) | 5 to 20 |
| c1cc(COc2ccc(-c3ccc4ncnc(Nc5ccc(-n6cncn6)cc5)c4c3)cc2)ccn1 [Example 13] |  | * (* <25 μM) | 5 to 20 |
| CNC(=O)c1nc(C)n(-c2ccc(Nc3ncnc4ccc(-c5ccc(OCCOC)c(F)c5)cc34)cc2)n1 [Example 31, 1-(4-{6-[3-Fluoro-4-(2-methoxy-ethoxy)-phenyl]-quinazolin-4-ylamino}-phenyl)-5-methyl-1H-[1,2,4]triazole-3-carboxylic acid methylamide] | < 5 | ** (** >25 μM) |  |
| COc1ccc(-c2ccc3ncnc(Nc4ccc(-n5cncn5)cc4C)c3c2)cc1OC [Example 27, [6-(3,4-Dimethoxy-phenyl)-quinazolin-4-yl]-(2-methyl-4-[1,2,4]triazol-1-yl-phenyl)-amine] | < 5 | * (* <25 μM) |  |
| COc1cc2c(Nc3ccc(-n4cncn4)cc3)ncnc2cc1OCCCCl [Example 3, [7-(3-Chloro-propoxy)-6-methoxy-quinazolin-4-yl]-(4-[1,2,4]triazol-1-yl-phenyl)amine] | < 5 | ** (** >25 μM) |  |
| Fc1ccc(-c2ccc3ncnc(Nc4ccc(-n5cncn5)cc4)c3c2)cc1F [Example 5, [6-(3,4-Difluoro-phenyl)-quinazolin-4-yl]-(4-[1,2,4]triazol-1-yl-phenyl)-amine] | < 5 | ** (** >25 μM) |  |
| c1nc(Nc2ccc(-n3cncn3)cc2)c2cc(-c3ccc(N4CCOCC4)cc3)ccc2n1 [Example 14] |  | * (* <25 μM) | < 5 |
| CN(C)CCOc1ccc(-c2ccc3ncnc(Nc4ccc(-n5cncn5)cc4)c3c2)cc1 [Example 12, {6-[4-(2-Dimethylamino-ethoxy)-phenyl]-quinazolin-4-yl}-(4-[1,2,4]triazol-1-yl-phenyl)-amine] | < 5 | * (* <25 μM) |  |
| Cc1cc(-n2cncn2)ccc1Nc1ncnc2ccc(Br)cc12 [Example 33] |  | ** (** >25 μM) | < 5 |
| COCCOc1ccc(-c2ccc3ncnc(Nc4ccc(-n5nc(C(=O)N6CCN(C)CC6)nc5C)cc4)c3c2)cc1F [Example 34, [1-(4-{6-[3-Fluoro-4-(2-methoxy-ethoxy)-phenyl]-quinazolin-4-ylamino}-phenyl)-5-methyl-1H-[1,2,4]triazole-3-yl]-(4-methyl-piperazin-1-yl)methanone] | < 5 | ** (** >25 μM) |  |
| CC(C)Oc1cc(-c2ccc3ncnc(Nc4ccc(-n5cncn5)cc4)c3c2)ccc1F [Example 24, [6-(4-Fluoro-3-isopropoxy-phenyl)-quinazolin-4-yl]-(4-[1,2,4]triazol-1-yl-phenyl)-amine] | < 5 | ** (** >25 μM) |  |
| Fc1cc(-c2ccc3ncnc(Nc4ccc(-n5cncn5)cc4)c3c2)ccc1Cl [Example 6, [6-(4-Chloro-3-fluoro-phenyl)-quinazolin-4-yl]-(4-[1,2,4]triazol-1-yl-phenyl)-amine] | > 20 | ** (** >25 μM) |  |
